Data taken from US20040024024A1, “Aromatic sulfone hydroxamates and their use as protease inhibitors” (priority 2001, published 2004).
Counter-ions that a name gives are not always drawn.

Assays:
Assay type in all cases: biochemical
Human recombinant MMP-14 [1] = molecular target: T1, Human recombinant MMP-14 (Homo sapiens, UniProt P50281); assay: In vitro MMP inhibition, IC50 determination (fluorogenic substrate I)
T1 construct: The catalytic domain enzyme was expressed in E. coli inclusion bodies, solubilized in urea; made in house
Outline: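 IC50 came from reduced fluorescence (ex 328 nm, em 415 nm) as inhibitor concentration rose, with 4 μM substrate I cleaved at Gly-Leu. Room-temperature incubation in pH 7.5 Tris buffer with 10 mM CaCl2; the E. coli-expressed, refolded MMP-14 catalytic domain was activated with trypsin or APMA.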

Human recombinant MMP-13 = molecular target: T2, Human recombinant MMP-13 (Homo sapiens, UniProt P45452); assay: In vitro MMP inhibition, Ki determination (fluorogenic substrate II)
T2 construct: made in house; host or cells: baculovirus / insect cells
Description: (§1) Several hydroxamates and salts thereof were analyzed in in vitro assays to determine their ability to inhibit the MMP cleavage of peptide substrates. Inhibition (Ki) and IC50 constants were calculated from the assayed hydroxamate-MMP interactions.
(§2) Human recombinant MMP-1, MMP-2, MMP-9, MMP-13, and MMP-14 were used in this assay. All enzymes were prepared in Assignee's laboratories following usual laboratory procedures. Protocols for the preparation and use of these enzymes are available in the scientific literature. See, e.g., Enzyme Nomenclature (Academic Press, San Diego, Calif., 1992) (and the citations therein). See also, Frije et al., J. Biol. Chem., 26(24), 16766-73 (1994).
The expressed proenzyme was first purified over a heparin agarose column, and then over a chelating zinc chloride column. The proenzyme was then activated by APMA for use in the assay. Further details on baculovirus expression systems may be found in, for example, Luckow et al., J. Virol., 67, 4566-79 (1993). See also, O'Reilly et al, Baculovirus Expression Vectors: A Laboratory Manual (W. H. Freeman and Co., New York, N.Y., 1992). See also, King et al., The Baculovirus Expression System: A Laboratory Guide (Chapman & Hall, London, England, 1992).
(§3) All MMPs were activated using 4-aminophenylmercuric acetate (“APMA”, Sigma Chemical, St. Louis, Mo.) or trypsin. MMP-9 also was activated using human recombinant MMP-3 (purified in Assignee's laboratory following standard cloning and purification techniques).
(§4) Two fluorogenic, methoxycoumarin-containing polypeptide substrates were used in the MMP inhibition assays:
(§5) MCA-ArgProLeuGlyLeuDpaAlaArgGluArgNH2 (II)
(§6) Here, “Dpa” is 3-(2,4-dinitrophenyl)-L-2,3-diaminopropionyl group, and “MCA” is 7-methoxycoumarin-4-yl acetyl. Substrate (I) was purchased from Baychem (Redwood City, Calif.), and substrate II was prepared Assignee's laboratory. Substrate I was used in the IC50 determination assays, while substrate II was used in the Ki determination assays. In the absence of MMP inhibitory activity, either substrate is cleaved at the Gly-Leu peptide bond. This cleavage separates the highly fluorogenic peptide from the 2,4-dinitrophenyl quencher, thus resulting in increase of fluorescent intensity.
(§7) The stock solutions of the assayed hydroxamates (or salts thereof) were prepared in 1% dimethyl sulfoxide (DMSO). These stock solutions were diluted in Buffer A (100 mM Tris-HCl, 100 mM NaCl, 10 mM CaCl2, 0.05% polyoxyethylene 23 lauryl ether, pH 7.5) to obtain solutions with different hydroxamate concentrations, i.e., assay solutions with different concentrations of the assayed MMP inhibitory compound. The experiment controls contained the same amount of Buffer A/DMSO as the assayed sample, but contained no hydroxamate (or salt thereof).
(§8) The assays from which the Ki determinations were made were performed as follows. The assayed hydroxamate samples were incubated in separate wells of untreated white polystyrene plates (Nunc Nalgene International, Rochester, N.Y.), and analyzed on a Tecan SpectraFlour Plus plate reader. The excitation wavelength was 330 nm, and the emission wavelength—420 nm. All samples (assayed hydroxamates and controls) were incubated in separate plate wells at room temperature for 1 hr in the presence of 4 μM of MMP substrate (II). In the absence of MMP inhibitory activity, substrate II was cleaved at the Gly-Leu bond resulting in an increase of relative fluorescence. Inhibition was observed as a reduced rate of this increase in relative fluorescence. The various hydroxamates were analyzed using a single low enzyme concentration with a single substrate concentration fixed at or below the Km. This protocol is a modification of method by Knight et al., FEBS Lett., 296(3), 263-266 (1992). Apparent inhibitory constants were determined by non-linear regression of reaction velocity as a function of inhibitor and enzyme concentration using Morrison's equation, as described by Kuzmic, Anal. Biochem. 286, 45-50 (2000). […]

Human recombinant MMP-14 [2] = molecular target: T1, Human recombinant MMP-14; assay: as above
Description: as §1, §2
The MMP-14 full length cDNA was provided by Dr. Gregory Goldberg of Washington University (St. Louis, Mo.). The catalytic domain enzyme was expressed in E. coli inclusion bodies, solubilized in urea, purified on a preparative […] reverse phase HPLC column, and then refolded in the presence of zinc acetate and purified for use.
as §3, §4, §5, §6, §7
as §8, with “(2000). Modifications were made in the non-linear regression method to allow a common control reaction rate and effective enzyme concentration to be shared between all dose-response relationships on a given assay plate.” for “(2000).”

[3] = substrate (I) 4 μM, room temperature, values not in parenthesis
[4] = substrate (II) 4 μM, 1 hr room temperature, apparent Ki, values in parenthesis

Row | SMILES | IC50 (Human recombinant MMP-14 [1]; [3]) | Ki (Human recombinant MMP-13; [4]) | Ki (Human recombinant MMP-14 [2]; [4]) | IC50 (Human recombinant MMP-14 [1]; value outside parenthesis) | Ki (Human recombinant MMP-13; value in parenthesis) | Ki (Human recombinant MMP-14 [2]; value in parenthesis)
1 | O=C(NO)C1(S(=O)(=O)c2ccc(OCCCc3nc(-c4ccc(OC(F)(F)F)cc4)no3)cc2)CCOCC1 [Example 31, tetrahydro-N-hydroxy-4-[[4-[3-[3[4-(trifluoromethoxy)phenyl]-1,2,4-oxadiazol-5-yl]propoxy]phenyl]sulfonyl]-2H-pyran-4-carboxamide] | > 10000 nM | 1.5 nM | > 10000 nM |  |  | 
2 | O=C(NO)C1(S(=O)(=O)c2ccc(OCCc3cccc(-c4ccccn4)c3)cc2)CCOCC1 [Example 40] | > 10000 nM | 0.58 nM | > 10000 nM |  |  | 
3 | CCN1CCC(C(=O)NO)(S(=O)(=O)c2ccc(OCCCc3nc(-c4ccc(OC(F)(F)F)cc4)no3)cc2)CC1 [Example 41, 1-ethyl-N-hydroxy 4-{[4-(3-{3-[4-(trifluoromethoxy)phenyl]-1,2,4-oxadiazol-5-yl}propoxy)phenyl]sulfonyl}piperidine-4-carboxamide Hydrochloride] | > 10000 nM | 1.06 nM | > 10000 nM |  |  | 
4 | COCCN1CCC(C(=O)NO)(S(=O)(=O)c2ccc(OCCCc3nc(-c4ccc(OC(F)(F)F)cc4)no3)cc2)CC1 [Example 42] | > 10000 nM | 0.486 nM | > 10000 nM |  |  | 
5 | CCN1CCC(C(=O)NO)(S(=O)(=O)c2ccc(OCCCc3cccc(-c4ccccc4)c3)cc2)CC1 [Example 46] | > 10000 nM | 2.29 nM | > 10000 nM |  |  | 
6 | O=C(NO)C1(S(=O)(=O)c2ccc(OCCCn3nnc(-c4ccc(OC(F)(F)F)cc4)n3)cc2)CCN(C2CC2)CC1 [Example 49] | > 10000 nM | 0.439 nM | > 10000 nM |  |  | 
7 | O=C(NO)C1(S(=O)(=O)c2ccc(OCCCc3nc(-c4ccc(OC(F)(F)F)cc4)no3)cc2)CCN(C2CC2)CC1 [Example 51, 1-cyclopropyl-N-hydroxy-4-{[4-(3-{3-[4-(trifluoromethoxy)phenyl]-1,2,4-oxadiazol-5-yl}propoxy)phenyl]sulfonyl}piperidine-4-carboxamide Hydrochloride] | > 10000 nM | 1.7 nM | 688 nM |  |  | 
8 | O=C(NO)C1(S(=O)(=O)c2ccc(OCCCn3nnc(-c4ccc(OC(F)(F)F)cc4)n3)cc2)CCN(CC2CC2)CC1 [Example 53] | > 10000 nM | 0.662 nM | > 10000 nM |  |  | 

Next, values leading:

Row | IC50 (Human recombinant MMP-14 [1]; [3]) | Ki (Human recombinant MMP-13; [4]) | Ki (Human recombinant MMP-14 [2]; [4]) | IC50 (Human recombinant MMP-14 [1]; value outside parenthesis) | Ki (Human recombinant MMP-13; value in parenthesis) | Ki (Human recombinant MMP-14 [2]; value in parenthesis) | SMILES
9 |  |  |  | > 10000 nM | 9.15 nM | > 10000 nM | O=C(NO)C1(S(=O)(=O)c2ccc(OCCCc3cccc(Cc4ccccc4)c3)cc2)CCOCC1 [Example 98]
10 |  |  |  | 7720 nM | 0.312 nM | 3480 nM | O=C(NO)C1(S(=O)(=O)c2ccc(OCCc3cccc(-c4ccncc4)c3)cc2)CCOCC1 [Example 113]
11 |  |  |  | > 10000 nM | 2.24 nM | > 10000 nM | O=C(NO)C1(S(=O)(=O)c2ccc(OCCc3cccc(-c4ccccc4F)c3)cc2)CCOCC1 [Example 115]
12 |  |  |  | > 10000 nM | 7.35 nM | > 10000 nM | O=C(NO)C1(S(=O)(=O)c2ccc(OCCc3cccc(-c4ccc(F)cc4)c3)cc2)CCOCC1 [Example 123]
13 |  |  |  | 5820 nM | 0.17 nM | 1670 nM | O=C(NO)C1(S(=O)(=O)c2ccc(OCCc3cccc(-c4cccnc4)c3)cc2)CCOCC1 [Example 125]
14 |  |  |  | > 10000 nM | 16.2 nM | > 10000 nM | Cc1ccc(-c2cccc(CCOc3ccc(S(=O)(=O)C4(C(=O)NO)CCOCC4)cc3)c2)cc1 [Example 127]
